Results as given in patent US20240408096A1, “DOSING REGIMENS FOR ORAL ALK2 KINASE INHIBITORS” (BioCryst Pharmaceuticals, Inc., priority 2020, published 2024).
Entries after “also recorded” stand apart in the source; their conditions may differ.

Key:
[1] = Phase 1 Part 1 (SAD) plasma PK incl. food effect; format: in vivo, human; conditions: for AUC0-24, geometric least-squares mean / AUC0-inf, geometric least-squares mean / AUC0-last, geometric least-squares mean / Cmax, geometric least-squares mean: 15 mg single dose; for AUC0-24 / AUC0-inf / AUC0-last / Cmax / Tmax / t1/2: Part 1 SAD; for AUC0-24 / AUC0-inf / AUC0-last / Cmax: geometric mean (CV%); for Tmax / t1/2: median
Protocol: (§1) Four sequential SAD cohorts were dosed.
Escalation to the next higher dose level in Part 1 occurred only after satisfactory review of clinical safety and pharmacokinetic data. […] Subjects received the same study drug and dose (Compound A or placebo) in both dosing periods.
(§2) For each cohort of Part 1, the daily dose of study drug was administered as a single dose (1 time daily or QD). In Part 1 of the study, following a screening period to determine eligibility, subjects in each cohort entered the Phase 1 clinical research unit (CRU) on the afternoon of Day −1. Study eligibility was re-confirmed upon admission to the CRU, and subjects remained in the CRU overnight prior to dosing on Day 1. Following Day 1, subjects remained in the CRU for an additional 72 hours post-dose (i.e., discharge on Day 4) to enable collection of plasma and urine for PK samples and other study assessments. Subjects were discharged from the CRU following plasma PK sample collection on Day 4 and returned on Day 16 (+2 days) for a final follow-up visit.
Serial venous blood samples were withdrawn via an indwelling cannula or by venipuncture according to the schedule in Tables 4 and 5 for Parts 1 and 2, respectively. Samples were collected into 4 mL lithium heparin tubes. The acceptable deviations from the nominal blood sampling times in Part 1 and Part 2 are as follows: the pre-dose blood sample will be taken ≤1 hour before dosing; 0 to 1 hour post-dose samples will be taken within +2 minutes of the nominal post-dose sampling time; >1 to 12 hours post-dose samples will be taken within +10 minutes of the nominal post-dose sampling time; and >12 hours post-dose samples will be taken within +30 minutes of the nominal post-dose sampling time if subjects are resident in the clinic. […]
In all derivations of PK parameters, 0 will be substituted for concentrations below the quantification limit (BQL) of the assay. Samples that are BQL but are between 2 samples with detectable concentrations will be excluded from PK analysis.
Dose proportionality was evaluated over all fasted doses within a study part based upon AUC0-inf (Part 1), AUCtau (Part 2), AUC0-t, and Cmax using the power model. The analysis was performed for Day 1 (Parts 1 and 2) and Day 7 (Part 2).
Dose proportionality for PK parameters was assessed by restricted maximum likelihood using SAS PROC MIXED (SAS STAT software, Cary N.C.). The mean slope was estimated from the power model and the corresponding 90% confidence interval (CI) calculated. Dose proportionality was also examined using an analysis of variance (ANOVA) method, where PK parameters for each dose were compared with a reference dose on a pair-wise basis. The ratio of geometric least squares (GLS) means and the corresponding 90% CI was estimated for each PK parameter of interest.
Mixed-effects models were constructed with treatment fitted as a fixed effect and subject fitted as a random effect to provide point estimates for the ratios of PK parameters under fed relative to fasted conditions and their associated 90% CI.

[2] = system: G-protein coupled receptor (GPCRs) related kinases; assay: off-target screening study
[3] = molecular target: T1, CYP2A6 (Homo sapiens, UniProt P11509); assay: CYP inhibition in vitro; format: in vitro ADME
T1 sequence (P11509 1-494): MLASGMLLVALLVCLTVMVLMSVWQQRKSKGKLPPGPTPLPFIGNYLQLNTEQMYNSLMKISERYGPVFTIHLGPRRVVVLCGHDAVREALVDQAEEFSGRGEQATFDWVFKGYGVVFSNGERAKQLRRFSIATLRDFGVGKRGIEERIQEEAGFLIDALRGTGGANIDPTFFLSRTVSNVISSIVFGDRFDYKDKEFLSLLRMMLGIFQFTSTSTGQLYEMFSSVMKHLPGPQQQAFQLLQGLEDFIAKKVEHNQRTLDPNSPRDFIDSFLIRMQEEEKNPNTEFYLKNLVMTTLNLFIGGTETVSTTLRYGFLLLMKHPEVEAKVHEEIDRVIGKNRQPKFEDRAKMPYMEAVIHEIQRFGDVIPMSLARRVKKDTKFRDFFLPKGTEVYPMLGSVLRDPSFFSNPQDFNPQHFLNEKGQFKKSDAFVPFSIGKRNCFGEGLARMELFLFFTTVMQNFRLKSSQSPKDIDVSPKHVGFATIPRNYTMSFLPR

[4] = Phase 1 Part 1 (SAD) safety and tolerability; format: in vivo, human; conditions: healthy subjects
Protocol: The primary outcome measure of Part 1 and Part 2 will be: (1) measurement of the safety and tolerability by subject incidence of graded treatment-emergent adverse events (TEAEs), laboratory abnormalities, and changes to vital signs, ECGs, cardiac telemetry, and physical examination findings.
as §1, §2

[5] = ECG / QTc after oral administration to dogs; format: in vivo, dog; conditions: HEDs up to 667 mg based on a 60 kg subject
[6] = Part 1 cohort 4, 15 mg single dose

COc1cc(-n2cnc(Nc3nc(N4CCC[C@H]4C(N)=O)nc4sccc34)c2)cc(OC)c1OC.O=C(O)CC(O)(CC(=O)O)C(=O)O [Compound A]
AUC0-24, geometric least-squares mean ([1]; fasted): 1975,63 ng · h/mL
AUC0-inf, geometric least-squares mean ([1]; fasted): 2075.34 ng·h/mL
AUC0-last, geometric least-squares mean ([1]; fasted): 2019.55 ng·h/mL
Cmax, geometric least-squares mean ([1]; fasted): 272.80 ng/mL
AUC0-24, geometric least-squares mean ([1]; fed): 1742.05 ng·h/mL
AUC0-inf, geometric least-squares mean ([1]; fed): 2087.05 ng·h/mL
AUC0-last, geometric least-squares mean ([1]; fed): 2015.24 ng·h/mL
Cmax, geometric least-squares mean ([1]; fed): 199.50 ng/mL
detectability in plasma ([1]; Part 1, all cohorts except cohort 1 (5 mg dose)): remained detectable over the entire 72-hour data collection period
median time to maximum concentration (Tmax) ([1]; Part 1, all fasted cohorts): approximately 2 hours
dose proportionality of plasma exposure ([1]; Part 1, single oral doses 5 to 25 mg, healthy subjects): exhibits dose proportionality; also recorded: approximately linear and dose proportional
AUC0-24 ([1]; 5 mg single oral dose, fasted): 686.9 (30.7) ng · h/mL
AUC0-inf ([1]; 5 mg single oral dose, fasted): 755.7 (29.9) ng · h/mL
AUC0-last ([1]; 5 mg single oral dose, fasted): 717.0 (31.3) ng · h/mL
Cmax ([1]; 5 mg single oral dose, fasted): 94.24 (45.2) ng/mL
Tmax ([1]; 5 mg single oral dose, fasted): 2.011 h
t1/2 ([1]; 5 mg single oral dose, fasted): 6.833 h
AUC0-24 ([1]; 10 mg single oral dose, fasted): 1545 (18.9) ng · h/mL
AUC0-inf ([1]; 10 mg single oral dose, fasted): 1662 (17.3) ng · h/mL
AUC0-last ([1]; 10 mg single oral dose, fasted): 1579 (18.8) ng · h/mL
Cmax ([1]; 10 mg single oral dose, fasted): 234.3 (26.1) ng/mL
Tmax ([1]; 10 mg single oral dose, fasted): 2.013 h
t1/2 ([1]; 10 mg single oral dose, fasted): 5.753 h
AUC0-24 ([1]; 15 mg single oral dose, fasted): 1976 (16.6) ng · h/mL
AUC0-inf ([1]; 15 mg single oral dose, fasted): 2214 (24.3) ng · h/mL
AUC0-last ([1]; 15 mg single oral dose, fasted): 2178 (24.8) ng · h/mL
Cmax ([1]; 15 mg single oral dose, fasted): 272.8 (42.5) ng/mL
Tmax ([1]; 15 mg single oral dose, fasted): 2.009 h
t1/2 ([1]; 15 mg single oral dose, fasted): 7.639 h
AUC0-24 ([1]; 15 mg single oral dose, fed): 1742 (17.6) ng · h/mL
AUC0-inf ([1]; 15 mg single oral dose, fed): 1978 (21.4) ng · h/mL
AUC0-last ([1]; 15 mg single oral dose, fed): 1898 (24.3) ng · h/mL
Cmax ([1]; 15 mg single oral dose, fed): 199.5 (41.2) ng/mL
Tmax ([1]; 15 mg single oral dose, fed): 4.023 h
t1/2 ([1]; 15 mg single oral dose, fed): 6.688 h
AUC0-24 ([1]; 25 mg single oral dose, fasted): 3188 (14.2) ng · h/mL
AUC0-inf ([1]; 25 mg single oral dose, fasted): 3517 (17.0) ng · h/mL
AUC0-last ([1]; 25 mg single oral dose, fasted): 3475 (17.8) ng · h/mL
Cmax ([1]; 25 mg single oral dose, fasted): 474.1 (37.1) ng/mL
Tmax ([1]; 25 mg single oral dose, fasted): 2.071 h
t1/2 ([1]; 25 mg single oral dose, fasted): 7.502 h
GLSM AUC0-last and GLSM AUC0-inf fasted vs. fed [1, 6]: approximately equivalent
Tmax, median of paired differences (95% CI) fed vs. fasted [1, 6]: 2.00 (0.99, 10.00)
decrease of GLSM AUC0-24 after high-fat meal vs fasted [1, 6]: 12%
decrease of GLSM Cmax after high-fat meal vs fasted [1, 6]: 27%
dose proportionality of single dose Cmax ([1]; Part 1 single ascending oral dose cohorts (FIG. 2)): approximately linear and dose-proportional
dose proportionality of single dose AUC0-24 ([1]; Part 1 single ascending oral dose cohorts (FIG. 3)): approximately linear and dose-proportional
off-target effects [2]: minimal off-target effects
CYP2A6 inhibition [3]: not an inhibitor
safety and tolerability ([4]; Part 1, single ascending oral doses 5 mg to 25 mg): safe and generally well tolerated
grade 3 or 4 adverse events ([4]; Part 1, single oral doses 5 mg to 25 mg): no grade 3 or 4 adverse events
prolongation of corrected QT interval (QTc) or other ECG changes [5]: did not induce prolongation of corrected QT interval (QTc)
